Tests used:
Assay type in all cases: in vivo
corn [1] = assay: Test Example 5: effect on crop by foliage application, plastic box (symbol c); details: 320 g/ha, 3 weeks after application
Procedure, shortened: (§1)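 Foliage-application test plants come from spot sowing in sterilized diluvial soil under a soil layer of about 1.5 cm, grown at 25° C. to 30° C. in a greenhouse.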

Chenopodium album = assay: Test Example 5: herbicidal effect by foliage application, plastic box (symbol O); details: 320 g/ha, 3 weeks after application
Procedure, shortened: (§2)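 Sowing in sterilized diluvial soil, 14 days' greenhouse growth at 25° C. to 30° C., then uniform small-sprayer foliar application of aqueous emulsion dilution; plants scored three weeks afterwards.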

Apera spica-venti = assay: Test Example 5: herbicidal effect by foliage application, plastic box (symbol L); details: 320 g/ha, 3 weeks after application
Procedure, shortened: as §2

Setaria viridis = assay: Test Example 5: herbicidal effect by foliage application, plastic box (symbol G); details: 320 g/ha, 3 weeks after application
Procedure, shortened: as §2

soybean = assay: Test Example 4: effect on crop by soil treatment (symbol d); details: application herbicide amount 320 g/ha
Procedure, shortened: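 Steps: fill box with sterilized diluvial soil; sow seed spot-like; cover with ~1.5 cm soil; grow in greenhouse (25° C. to 30° C.).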

Amaranthus retroflexus = assay: Test Example 4: herbicidal effect by soil treatment (symbol N); details: application herbicide amount 320 g/ha
Procedure, shortened: (§3)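 Seeds were sown in sterilized diluvial soil, covered with about 1.5 cm of soil, and the soil surface was sprayed with a water-diluted emulsion of the compound at a predetermined rate. Plants grew in a greenhouse at 25° C. to 30° C.; effects were scored visually 3 weeks after application.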

Digitaria ciliaris = assay: Test Example 4: herbicidal effect by soil treatment (symbol F); details: application herbicide amount 320 g/ha
Procedure, shortened: as §3

rapeseed = assay: Test Example 5: effect on crop by foliage application, plastic box (symbol g); details: 320 g/ha, 3 weeks after application
Procedure, shortened: as §1

Abutilon theophrasti [2] = assay: Test Example 4: herbicidal effect by soil treatment (symbol M); details: application herbicide amount 320 g/ha
Procedure, shortened: as §3

beet = assay: Test Example 5: effect on crop by foliage application, plastic box (symbol f); details: 320 g/ha, 3 weeks after application
Procedure, shortened: as §1

corn [3] = assay: Test Example 4: effect on crop by soil treatment (symbol c); details: application herbicide amount 320 g/ha
Procedure, shortened: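 The test used sterilized diluvial soil. Seed was set down in spots and overlaid with about 1.5 cm of soil before growth in a greenhouse kept at 25° C. to 30° C.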

Lolium multiflorum Lam. [4] = assay: Test Example 4: herbicidal effect by soil treatment (symbol K); details: application herbicide amount 320 g/ha
Procedure, shortened: as §3

Abutilon theophrasti [5] = assay: Test Example 5: herbicidal effect by foliage application, plastic box (symbol M); details: 320 g/ha, 3 weeks after application
Procedure, shortened: as §2

Leptochloa chinensis = assay: Test Example 3: herbicidal effect by foliage application, Wagner pot (symbol D); details: application herbicide amount 320 g/ha
Procedure, shortened: (§4)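 In a shallow-flooded alluvial soil system held at 25–30 °C, plants including rice grew for 14 days and were then sprayed over the foliage with emulsion diluted to a fixed herbicide amount. Visual rating followed at 3 weeks.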

Avena fatua = assay: Test Example 5: herbicidal effect by foliage application, plastic box (symbol I); details: 320 g/ha, 3 weeks after application
Procedure, shortened: as §2

[6] = test system: directly sowed rice plant; assay: Test Example 3: effect on crop by foliage application, Wagner pot (symbol b); details: application herbicide amount 320 g/ha
Procedure, shortened: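 Steps: fill a 1/10000-are Wagner pot with alluvial soil; add water and mix to submerge at 0.1–0.5 cm depth; sow rice plus Echinochloa crus-galli var. crus-galli, Leptochloa chinensis and Cyperus difformis; grow in a 25–30 °C greenhouse.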

[7] = test system: Echinochloa crus-galli var. crus-galli; assay: Test Example 4: herbicidal effect by soil treatment (symbol H); details: application herbicide amount 320 g/ha
Procedure, shortened: as §3

Cyperus difformis = assay: Test Example 3: herbicidal effect by foliage application, Wagner pot (symbol E); details: application herbicide amount 320 g/ha
Procedure, shortened: as §4

Lolium multiflorum Lam. [8] = assay: Test Example 5: herbicidal effect by foliage application, plastic box (symbol K); details: 320 g/ha, 3 weeks after application
Procedure, shortened: as §2

Stellaria media = assay: Test Example 5: herbicidal effect by foliage application, plastic box (symbol P); details: 320 g/ha, 3 weeks after application
Procedure, shortened: as §2

wheat = assay: Test Example 5: effect on crop by foliage application, plastic box (symbol e); details: 320 g/ha, 3 weeks after application
Procedure, shortened: as §1

| Structure (SMILES) | c: corn, effect on crop grade (corn [1]) | O: Chenopodium album, herbicidal effect grade (Chenopodium album) | L: Apera spica-venti, herbicidal effect grade (Apera spica-venti) | G: Setaria viridis, herbicidal effect grade (Setaria viridis) | d: soybean, effect on crop grade (soybean) | N: Amaranthus retroflexus, herbicidal effect grade (Amaranthus retroflexus) | F: Digitaria ciliaris, herbicidal effect grade (Digitaria ciliaris) | g: rapeseed, effect on crop grade (rapeseed) | M: Abutilon theophrasti, herbicidal effect grade (Abutilon theophrasti [2]) | f: beet, effect on crop grade (beet) | c: corn, effect on crop grade (corn [3]) | K: Lolium multiflorum Lam., herbicidal effect grade (Lolium multiflorum Lam. [4]) | M: Abutilon theophrasti, herbicidal effect grade (Abutilon theophrasti [5]) | herbicidal effect on D (Leptochloa chinensis), grade 0-5 (Leptochloa chinensis) | I: Avena fatua, herbicidal effect grade (Avena fatua) | effect on crop b (directly sowed rice plant), grade 0-5 [6] | H: Echinochloa crus-galli var. crus-galli, herbicidal effect grade [7] | herbicidal effect on E, grade 0-5 (Cyperus difformis) | K: Lolium multiflorum Lam., herbicidal effect grade (Lolium multiflorum Lam. [8]) | P: Stellaria media, herbicidal effect grade (Stellaria media) | further results |
| --- | --- | --- | --- | --- | --- | --- | --- | --- | --- | --- | --- | --- | --- | --- | --- | --- | --- | --- | --- | --- | --- |
| CCOC(=O)C(C(=O)C(F)(F)F)C1CC(O)=C(c2c(C)cc(C)cc2C)C1=O (stereo not drawn) [2-010] | 0 (Herbicidal ratio of 5% or lower (almost no effect)) | 0 (Herbicidal ratio of 5% or lower (almost no effect)) | 0 (Herbicidal ratio of 5% or lower (almost no effect)) | 0 (Herbicidal ratio of 5% or lower (almost no effect)) | 0 (Herbicidal ratio of 5% or lower (almost no effect)) | 0 (Herbicidal ratio of 5% or lower (almost no effect)) | 0 (Herbicidal ratio of 5% or lower (almost no effect)) | 0 (Herbicidal ratio of 5% or lower (almost no effect)) | 0 (Herbicidal ratio of 5% or lower (almost no effect)) | 0 (Herbicidal ratio of 5% or lower (almost no effect)) | 0 (Herbicidal ratio of 5% or lower (almost no effect)) | 0 (Herbicidal ratio of 5% or lower (almost no effect)) | 0 (Herbicidal ratio of 5% or lower (almost no effect)) | 0 (Herbicidal ratio of 5% or lower (almost no effect)) | 0 (Herbicidal ratio of 5% or lower (almost no effect)) | 1 (Herbicidal ratio of 5% or higher and lower than 20%) | 0 (Herbicidal ratio of 5% or lower (almost no effect)) | 0 (Herbicidal ratio of 5% or lower (almost no effect)) | 0 (Herbicidal ratio of 5% or lower (almost no effect)) | 0 (Herbicidal ratio of 5% or lower (almost no effect)) | e: wheat, effect on crop grade (wheat): 0 (Herbicidal ratio of 5% or lower (almost no effect)) |
| CCOC(=O)C(C(=O)Cc1ccccc1)C1CC(O)=C(c2c(C)cc(C)cc2C)C1=O (stereo not drawn) [2-011] | 0 (Herbicidal ratio of 5% or lower (almost no effect)) | 0 (Herbicidal ratio of 5% or lower (almost no effect)) | 0 (Herbicidal ratio of 5% or lower (almost no effect)) | 0 (Herbicidal ratio of 5% or lower (almost no effect)) | 0 (Herbicidal ratio of 5% or lower (almost no effect)) | 0 (Herbicidal ratio of 5% or lower (almost no effect)) | 0 (Herbicidal ratio of 5% or lower (almost no effect)) | 0 (Herbicidal ratio of 5% or lower (almost no effect)) | 0 (Herbicidal ratio of 5% or lower (almost no effect)) | 0 (Herbicidal ratio of 5% or lower (almost no effect)) | 0 (Herbicidal ratio of 5% or lower (almost no effect)) | 0 (Herbicidal ratio of 5% or lower (almost no effect)) | 0 (Herbicidal ratio of 5% or lower (almost no effect)) | 0 (Herbicidal ratio of 5% or lower (almost no effect)) | 0 (Herbicidal ratio of 5% or lower (almost no effect)) | 0 (Herbicidal ratio of 5% or lower (almost no effect)) | 0 (Herbicidal ratio of 5% or lower (almost no effect)) | 0 (Herbicidal ratio of 5% or lower (almost no effect)) | 2 (Herbicidal ratio of 20% or higher and lower than 40%) | 0 (Herbicidal ratio of 5% or lower (almost no effect)) | e: wheat, effect on crop grade (wheat): 0 (Herbicidal ratio of 5% or lower (almost no effect)) |
| CCOC(=O)C(CC)(C(C)=O)C1CC(O)=C(c2c(C)cc(C)cc2C)C1=O (stereo not drawn) [2-012] | 0 (Herbicidal ratio of 5% or lower (almost no effect)) | 0 (Herbicidal ratio of 5% or lower (almost no effect)) | 0 (Herbicidal ratio of 5% or lower (almost no effect)) | 0 (Herbicidal ratio of 5% or lower (almost no effect)) | 0 (Herbicidal ratio of 5% or lower (almost no effect)) | 0 (Herbicidal ratio of 5% or lower (almost no effect)) | 0 (Herbicidal ratio of 5% or lower (almost no effect)) | 0 (Herbicidal ratio of 5% or lower (almost no effect)) | 0 (Herbicidal ratio of 5% or lower (almost no effect)) | 0 (Herbicidal ratio of 5% or lower (almost no effect)) | 0 (Herbicidal ratio of 5% or lower (almost no effect)) | 0 (Herbicidal ratio of 5% or lower (almost no effect)) | 0 (Herbicidal ratio of 5% or lower (almost no effect)) | 0 (Herbicidal ratio of 5% or lower (almost no effect)) | 0 (Herbicidal ratio of 5% or lower (almost no effect)) | 0 (Herbicidal ratio of 5% or lower (almost no effect)) | 0 (Herbicidal ratio of 5% or lower (almost no effect)) | 0 (Herbicidal ratio of 5% or lower (almost no effect)) | 3 (Herbicidal ratio of 40% or higher and lower than 70%) | 0 (Herbicidal ratio of 5% or lower (almost no effect)) | e: wheat, effect on crop grade (wheat): 0 (Herbicidal ratio of 5% or lower (almost no effect)) |
| CCOC(=O)C(C(=O)c1ccccn1)C1CC(O)=C(c2c(C)cc(C)cc2C)C1=O (stereo not drawn) [2-013] | 4 (Herbicidal ratio of 70% or higher and lower than 90%) | 1 (Herbicidal ratio of 5% or higher and lower than 20%) | 4 (Herbicidal ratio of 70% or higher and lower than 90%) | 5 (Herbicidal ratio of 90% or more (almost completely withered)) | 0 (Herbicidal ratio of 5% or lower (almost no effect)) | 0 (Herbicidal ratio of 5% or lower (almost no effect)) | 1 (Herbicidal ratio of 5% or higher and lower than 20%) | 4 (Herbicidal ratio of 70% or higher and lower than 90%) | 0 (Herbicidal ratio of 5% or lower (almost no effect)) | 0 (Herbicidal ratio of 5% or lower (almost no effect)) | 0 (Herbicidal ratio of 5% or lower (almost no effect)) | 1 (Herbicidal ratio of 5% or higher and lower than 20%) | 0 (Herbicidal ratio of 5% or lower (almost no effect)) | 0 (Herbicidal ratio of 5% or lower (almost no effect)) | 3 (Herbicidal ratio of 40% or higher and lower than 70%) | 0 (Herbicidal ratio of 5% or lower (almost no effect)) | 1 (Herbicidal ratio of 5% or higher and lower than 20%) | 0 (Herbicidal ratio of 5% or lower (almost no effect)) | 5 (Herbicidal ratio of 90% or more (almost completely withered)) | 1 (Herbicidal ratio of 5% or higher and lower than 20%) | e: wheat, effect on crop grade (wheat): 0 (Herbicidal ratio of 5% or lower (almost no effect)) |

— US11000033B2, “Ketone or oxime compound, and herbicide” (NISSAN CHEMICAL CORPORATION, priority 2014, dated 2021)
